Data as given in US7943382B2, “Method for inspecting fat-soluble vitamin and/or fat-soluble food factor by saliva analysis” (Mitsubishi Chemical Medience Corporation, priority 2004, dated 2011).

Experiments:
[1] = Transition of the CoQ10 level in parotid saliva depending on ingestion states of Supplement N; type: in vivo, human
Protocol: For the ingestion test of CoQ10, commercial supplement S containing CoQ10 of 50 mg per one tablet and commercial supplement N containing 30 mg per one tablet were used. 10 volunteers in the group S and 10 volunteers in the group N were made to ingest orally the supplement s and the supplement N respectively. For ingestion of supplement S, each volunteer was made to ingest orally two tablets at 9:00 every morning continuously for a week, and for the next week, made to ingest orally double amount, four tablets at 9:00 every morning continuously, and then stopped from ingestion for two weeks. For ingestion of supplement N, each volunteer was made to ingest orally three tablets at 9:00 every morning continuously for a week, and for the next week, made to ingest orally double amount, six tablets at 9:00 every morning continuously, and then stopped from ingestion for two weeks. As specimens in both the groups S and N, parotid saliva and heparinized plasma were collected from PM 4:00 to 5:00, total four times, that is, before and one week after ingestion, at double dose ingestion, and two weeks after discontinuation of ingestion. The volunteer had the mouth rinsed with water prior to collection, kept quiet on a chair for 5 minutes, while the volunteer accumulated saliva in the oral cavity and discharged to initialize the oral cavity, followed by collecting parotid saliva. For collection of parotid saliva, the Saliva-sampler is inserted between the teeth and the cheek near the open of the parotid gland, the volunteer sat quiet on a chair, during which saliva was collected, while the volunteer swallowed saliva, which was secreted from the sublingual gland and the submandibular gland and accumulated in the mandible, to prevent contamination with the saliva from the sublingual gland and the submandibular gland. For analysis of CoQ10 in saliva collected from the parotid gland, the Saliva-sampler with absorbed saliva was transferred to the peculiar tube holding 1 ml of 50% ethanol, to which […] of ethanol was added to have a final concentration of […]. […]

[2] = Adsorption of CoQ10 in saliva to absorbent materials (no extraction); type: physicochemical
Protocol: In the method of preparing the specimens in example 2, the absorbent materials for saliva were weighed. 50 mg of an absorbent was soaked in 600 μl of saliva, 20 μl of saliva was fractionated to analyze the CoQ10 concentration in saliva transuaded from the absorbent, to which 180 μl of isopropanol was added, mixed, and centrifuged at 4° C. by 1000 G for 5 minutes to remove proteins, and 20 μl of the supernatant was subjected to HPLC. The results of analysis for CoQ10 are shown in Table 1 as “CoQ10 concentrations in saliva which was obtained by steps that 50 mg of the absorbent was soaked in 600 μl of saliva and the saliva was preserved in the interspace of the absorbent”. It took about 3 minutes to secrete 1 ml of parotid saliva for the volunteers who spent little time, and 10 minutes or longer for the volunteers who spent lots of time, therefore it is practically difficult to collect without the absorbent. In this case, the fat-soluble food factors and the fat-soluble vitamins are adsorbed by any absorbent materials for saliva such as polyester, cotton and acetylcellulose. Although it is lowly absorptive, polyurethane fills water in saliva as bound water, so that condensation is caused, resulting in apparently high level (Refer to Table 1). Consequently, the adsorbed component should be extracted. […] That means, a certain amount of saliva should be absorbed to a certain amount of absorbent in the oral cavity.

[3] = Extraction of CoQ10 from absorbent materials with 75% (V/V) ethanol; type: physicochemical
Protocol: In the method of preparing the specimens in example 2, the absorbent materials for saliva and the collection rate by extraction with 75% (V/V) ethanol were weighed. An absorbent of 50 mg was soaked in 600 μl of saliva, to which […] of ethanol was added, mixed, and centrifuged at 4° C. by 1000 G or 5 minutes to remove proteins, and 20 μl of the supernatant was subjected to HPLC. The results of analysis for CoQ10 are shown in Table 3 as “CoQ10 concentrations in saliva which was obtained by steps that 50 mg of the absorbent was soaked in 600 μl of saliva and the saliva was extracted with 1800 μl of ethanol (final concentration: 75%)”. […] Thus, although the fat-soluble components in saliva are adsorbed to the absorbent, the content in a certain amount of saliva can be determined by analyzing the summation of the fat-soluble food factors and the fat-soluble vitamins contained in saliva preserved in the absorbent and interspace.

[4] = 50 mg Acetylcellulose soaked in 600 μl of saliva
[5] = 50 mg Cotton soaked in 600 μl of saliva
[6] = 50 mg Polyester soaked in 600 μl of saliva
[7] = 50 mg Polyurethane soaked in 600 μl of saliva
[8] = Acetylcellulose + ethanol (final concentration 75%)
[9] = Cotton + ethanol (final concentration 75%)
[10] = Polyester + ethanol (final concentration 75%)
[11] = Polyurethane + ethanol (final concentration 75%)

## COC1=C(OC)C(=O)C(C/C=C(\C)CC/C=C(\C)CC/C=C(\C)CC/C=C(\C)CC/C=C(\C)CC/C=C(\C)CC/C=C(\C)CC/C=C(\C)CC/C=C(\C)CCC=C(C)C)=C(C)C1=O [CoQ10, Ubidecarenone]
[1]; 3 tablets/day one week, 6 tablets/day next week, then two weeks discontinuation, other 7 volunteers, FIG. 7
  transition of the CoQ10 level in parotid saliva: increased by ingestion of the supplement with CoQ10, furthermore increased by more ingestion, and decreased after discontinuation of ingestion
[1]; volunteer N9, ingestion approximately three hours after breakfast
  transition of the CoQ10 level in parotid saliva: small increase
[1]; volunteers N1 and N5 (no or often lacking breakfast), increased amount of the supplement
  transition of the CoQ10 level in parotid saliva: hardly increased
[2]; [4]
  CoQ10 concentration in saliva preserved in the interspace of the absorbent: 25 ng/mL
  Collection rate: 7.3%
[2]; [5]
  CoQ10 concentration in saliva preserved in the interspace of the absorbent: 3.4 ng/mL
  Collection rate: 10.2%
[2]; [6]
  CoQ10 concentration in saliva preserved in the interspace of the absorbent: 19.6 ng/mL
  Collection rate: 58.2%
[2]; [7]
  CoQ10 concentration in saliva preserved in the interspace of the absorbent: 59.8 ng/mL
  Collection rate: 178%
[2]; Saliva (control), no absorbent
  CoQ10 concentration in saliva: 33.7 ng/mL
  Collection rate: 100%
[3]; [8]
  CoQ10 concentration in saliva after extraction: 31.8 ng/mL
  Collection rate: 94.3%
[3]; [9]
  CoQ10 concentration in saliva after extraction: 32.2 ng/mL
  Collection rate: 95.6%
[3]; [10]
  CoQ10 concentration in saliva after extraction: 34.2 ng/mL
  Collection rate: 102%
[3]; [11]
  CoQ10 concentration in saliva after extraction: 32.1 ng/mL
  Collection rate: 95.2%
[3]; Saliva (control)
  CoQ10 concentration in saliva: 33.7 ng/mL
  Collection rate: 100%
[3]; ethanol 75% (V/V)
  collection by extraction, independent of the absorbent material: approximately 100%
